This note sets out measurements from patent publication US11078192B2, “Aromatic acetylene or aromatic ethylene compound, intermediate, preparation method, pharmaceutical composition and use thereof” (GUANGZHOU MAXINOVEL PHARMACEUTICALS CO., LTD., priority 2016, dated 2021).

Bounds are passed on as bounds.

The assay deals with PD-1/PD-L1 (Homo sapiens (Human), UniProt Q9NZQ7). The assay can be described thus: Homogeneous Time-Resolved Fluorescence (HTRF) binding assay. Particulars: CisBio kit #64CUS000C-1, read-out: IC50 of compounds binding to PD-1/PD-L1. As for the experimental part: Homogeneous Time-Resolved Fluorescence (HTRF) binding assay was used to determine the binding activity of the compound of the present invention to PD-1/PD-L1.
Chain of PD-1/PD-L1 (Q9NZQ7 19-238): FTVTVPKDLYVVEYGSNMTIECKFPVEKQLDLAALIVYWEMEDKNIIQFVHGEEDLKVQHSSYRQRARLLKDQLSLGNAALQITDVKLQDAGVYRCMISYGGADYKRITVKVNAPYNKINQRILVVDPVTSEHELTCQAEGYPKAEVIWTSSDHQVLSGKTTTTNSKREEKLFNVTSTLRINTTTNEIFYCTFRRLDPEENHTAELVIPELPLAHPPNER
The purchased kit (CisBio, #64CUS000C-1) contained reagents required for assays such as PD-1, PD-L1, anti-tag1-Eu, Anti-tag2-XL665, Dilute Buffer, and Detection Buffer.
1. The compound was formulated to 10 concentrations with a 3-fold gradient with 100% DMSO.
2. The solution of the compound in DMSO was added to Dilute Buffer, mixed thoroughly, then transferred to a 96-well plate.
3. PD-L1 was diluted with Dilute Buffer, then added to the above 96-well plate.
4. PD-1 was diluted with Dilute Buffer and added to the above 96-well plate, which was then incubated at room temperature for 30 minutes.
5. A portion of anti-tag1-Eu and a portion of anti-tag2-XL665 were added to Detection Buffer, mixed thoroughly and transferred to the above 96-well plate.
6. The mixture in the above 96-well plate was incubated at room temperature for 1 to 24 hours.
7. HTRF values were read with Envision.
A general note: TR-FRET usually uses a lanthanide donor and a delayed reading to cut background.
With `Cc1cc(CN2CCC[C@H]2CO)ccc1/C=C/c1cccc(-c2ccccc2)c1C` [Compound 12], the IC50 worked out at 410 nM.

In the case of `Cc1c(C#Cc2ccc(CN3CCCC(O)C3C(=O)O)cc2F)cccc1-c1ccccc1` (stereo not shown) [Compound 29, 1-(3-Fluoro-4-((2-methylbiphenyl-3-yl)ethynyl)benzyl)-3-hydroxypiperidin-2-carboxylic Acid], the IC50 was found to be 2820 nM.

Consider `COc1cc(/C=C/c2cncc(-c3ccccc3)c2C)cc(OC)c1CN[C@@H](CO)C(=O)O` [Compound 63, (S,E)-2-(2,6-dimethoxy-4-(2-(4-methyl-5-phenylpyridin-3-yl)vinyl)benzylamino)-3-hydroxypropanoic Acid], for which the IC50 came to 3900 nM.

With `COc1cc(/C=C/c2cccc(-c3ccccc3)c2C)cc(OC)c1CNCCO` [Compound 4, (E)-2-((2,6-Dimethoxy-4-(2-(2-methylbiphenyl-3-yl)vinyl)benzyl)amino)ethan-1-ol], the IC50 came out at 280 nM.

For `COc1cc(/C=C/c2cccc(-c3ccccc3)c2C)cc(OC)c1CN1CCCC(O)C1C(=O)O` (stereo not shown) [Compound 30, (E)-1-(2,6-Dimethoxy-4-(2-(2-methylbiphenyl-3-yl)vinyl)benzyl)-3-hydroxy piperidin-2-carboxylic Acid], the IC50 is 460 nM.

For the compound `COc1ccc(-c2cccc(/C=C/c3cc(OC)c(CNC(C)(CO)C(=O)O)c(OC)c3)c2C)cc1` (stereo not shown) [Compound 50, (E)-2-(2,6-Dimethoxy-4-(2-(4′-methoxy-2-methylbiphenyl-3-yl)vinyl)benzylamino)-3-hydroxy-2-methylpropionic Acid], the IC50 was 7980 nM.

With `COc1cc(/C=C/c2cccc(-c3ccccc3)c2C)cc(OC)c1CN1CCCCC1(CO)C(=O)O` (stereo not shown) [Compound 47], the IC50 came to 920 nM.

`Cc1cc(CNC(CO)C(=O)O)cnc1/C=C/c1cccc(-c2ccc3c(c2)OCCO3)c1C` (stereo not shown) [Compound 69, (E)-2-((6-(3-(2,3-Dihydrobenzo[b][1,4]dioxin-6-yl)-2-methylstyryl)-5-methylpyridin-3-yl)methylamino)-3-hydroxypropanoic Acid]: the IC50 turned out to be 36 nM.

In the case of `COc1nc(/C=C/c2cccc(-c3ccccc3)c2C)ccc1CN[C@H](CO)C(=O)O` [Compound 41, (R,E)-3-Hydroxy-2-((2-methoxy-6-(2-(2-methylbiphenyl-3-yl)vinyl)pyridin-3-yl)methylamino)propanoic Acid], the IC50 amounted to 5090 nM.

In the case of `Cc1cc(CNC(CO)CO)ccc1/C=C/c1cccc(-c2ccccc2)c1C` [Compound 31, (E)-2-(3-Methyl-4-(2-(2-methylbiphenyl-3-yl)vinyl)benzylamino)-1,3-propanediol], the IC50 turned out to be 240 nM.

For `COc1cc(/C=C/c2cccc(-c3ccc4c(c3)OCCO4)c2C)ccc1CN[C@@H](CO)C(=O)O` [Compound 62, (S,E)-2-(4-(3-(2,3-Dihydrobenzo[b][1,4]dioxin-6-yl)-2-methylstyryl)-2-methoxybenzylamino)-3-hydroxypropanoic Acid], the IC50 was 120 nM.

`COc1cc(/C=C/c2cccc(-c3ccc4c(c3)OCCO4)c2C)cc(OC)c1CNC(CO)C(=O)O` (stereo not shown) [Compound 56, (E)-2-(4-(3-(2,3-Dihydrobenzo[b][1,4]dioxin-6-yl)-2-methylstyryl)-2,6-dimethoxybenzylamino)-3-hydroxypropanoic Acid]: the IC50 came out at 100 nM.

On to `Cc1c(/C=C/c2ccc(CN3CCCC(O)C3CO)cc2Cl)cccc1-c1ccccc1` (stereo not shown) [Compound 23, (E)-2-Hydroxymethyl-1-(3-chloro-4-(2-(2-methylbiphenyl-3-yl)vinyl)benzyl) piperidin-3-ol], for which the IC50 was found to be 690 nM.

Regarding `COC(=O)c1cccc(-c2cccc(/C=C/c3cc(OC)c(CNC(C)(CO)C(=O)O)c(OC)c3)c2C)c1` (stereo not shown) [Compound 51, (E)-2-(2,6-Dimethoxy-4-(2-(3′-methoxycarbonyl-2-methylbiphenyl-3-yl)vinyl)benzylamino)-3-hydroxy-2-methylpropionic Acid], the IC50 was 815 nM.

Take `COC(=O)c1ccc(-c2cccc(/C=C/c3cc(OC)c(CNC(C)(CO)C(=O)O)c(OC)c3)c2C)cc1` (stereo not shown) [Compound 49, (E)-2-(2,6-Dimethoxy-4-(2-(4′-(methoxycarbonyl)-2-methylbiphenyl-3-yl)vinyl)benzylamino)-3-hydroxy-2-methylpropanoic Acid]: the IC50 was above 10000 nM.

On to `Cc1cc(CN2CCC[C@@H](O)[C@@H]2C(N)=O)ccc1/C=C/c1cccc(-c2ccccc2)c1C` [Compound 27, (2R,3R,E)-3-Hydroxy-1-(3-methyl-4-(2-(2-methylbiphenyl-3-yl)vinyl)benzyl)piperidin-2-carboxamide], for which the IC50 is 920 nM.

For `Cc1c(/C=C/c2ccc(CN3CCC[C@H]3CO)cn2)cccc1-c1ccccc1` [Compound 16, (S,E)-(1-((6-(2-(2-Methylbiphenyl-3-yl)vinyl)pyridin-3-yl)methyl)pyrrolidin-2-yl)methanol], the IC50 worked out at 590 nM.

As for `Cc1cc(CN[C@H](CO)C(=O)O)ccc1/C=C/c1cccc(-c2ccccc2)c1C` [Compound 38, (R,E)-2-(3-Methyl-4-(2-(2-methylbiphenyl-3-yl)vinyl)benzylamino)-3-hydroxypropionic Acid], the IC50 was 230 nM.

Regarding `Cc1cc(/C=C/c2cccc(-c3ccc4c(c3)OCCO4)c2C)cc(OCc2cccc(C#N)c2)c1CN1CCC[C@H]1CO` [Compound 1, (S,E)-3-((5-(3-(2,3-Dihydrobenzo[b][1,4]dioxin-6-yl)-2-methylstyryl)-2-((2-(hydroxymethyl)pyrrolidin-1-yl)methyl)-3-methylphenoxy)methyl)benzonitrile], the IC50 turned out to be 1530 nM.

On to `COc1cc(/C=C/c2cccc(-c3ccccc3)c2C)cc(OC)c1CNC(C)(CO)C(=O)O` (stereo not shown) [Compound 44, (E)-2-(2,6-Dimethoxy-4-(2-(2-methylbiphenyl-3-yl)vinyl)benzylamino)-3-hydroxy-2-methylpropanoic Acid], for which the IC50 came out at 59 nM.

Consider “(R,E)-2-(3-Chloro-4-(2-(2-methylbiphenyl-3-yl)vinyl)benzylamino)-3-hydroxypropionamide [Compound 34]”, for which the IC50 was 340 nM.

As for `COc1cc(/C=C/c2cccc(-c3ccccc3)c2C)cc(OC)c1CNc1cccc(O)c1C(=O)O` [Compound 53, (E)-2-(2,6-Dimethoxy-4-(2-(2-methylbiphenyl-3-yl)vinyl)benzylamino)-6-hydroxybenzoic Acid], the IC50 is above 10000 nM.

As for `COc1cc(/C=C/c2cccc(-c3ccccc3)c2C)cc(OC)c1CNCCNC(C)=O` [Compound 6, (E)-N-(2-((2,6-Dimethoxy-4-(2-(2-methylbiphenyl-3-yl)vinyl)benzyl)amino)ethyl)acetamide], the IC50 is 150 nM.

As to `COc1cc(/C=C/c2cccc(-c3cccc(CO)c3)c2C)cc(OC)c1CNC(C)(CO)C(=O)O` (stereo not shown) [Compound 52, (E)-2-(2,6-Dimethoxy-4-(2-(3′-hydroxymethyl-2-methylbiphenyl-3-yl)vinyl)benzylamino)-3-hydroxy-2-methylpropionic Acid], the IC50 is above 10000 nM.

Take `Cc1c(/C=C/c2ccc(CN3CCCC(O)C3C(=O)O)cc2F)cccc1-c1ccccc1` (stereo not shown) [Compound 21, (E)-3-Hydroxy-1-(3-fluoro-4-(2-(2-methylbiphenyl-3-yl)vinyl)benzyl)piperid in-2-carboxylic Acid]: the IC50 was found to be 780 nM.

`COc1cc(/C=C/c2cncc(-c3ccc4c(c3)OCCO4)c2C)cc(OC)c1CNC(C)(CO)C(=O)O` (stereo not shown) [Compound 66, (E)-2-(4-(2-(5-(2,3-Dihydrobenzo[b][1,4]dioxin-6-yl)-4-methylpyridin-3-yl)vinyl)-2,6-dimethoxybenzylamino)-3-hydroxy-2-methylpropanoic Acid]: the IC50 amounted to 2900 nM.

Turning to `COC(=O)C1C(O)CCCN1Cc1c(OC)cc(/C=C/c2cccc(-c3ccccc3)c2C)cc1OC` (stereo not shown) [Compound 25, (E)-Methyl 1-(2,6-dimethoxy-4-(2-(2-methylbiphenyl-3-yl)vinyl)benzyl)-3-hydroxypiperidin-2-carboxylate], the IC50 was 5950 nM.

As to `Cc1cc(CN2CCCC(O)C2CO)ccc1/C=C/c1cccc(-c2ccccc2)c1C` (stereo not shown) [Compound 22, (E)-2-Hydroxymethyl-1-(3-methyl-4-(2-(2-methylbiphenyl-3-yl)vinyl)benzyl)piperidin-3-ol], the IC50 was determined as 550 nM.

With `Cc1c(/C=C/c2ccc(CNCC(O)CC(=O)O)cn2)cccc1-c1ccc2c(c1)OCCO2` (stereo not shown) [Compound 18, (E)-4-((6-(3-(2,3-Dihydrobenzo[b][1,4]dioxin-6-yl)-2-methylstyryl)pyridin-3-yl)methylamino)-3-hydroxybutanoic Acid], the IC50 worked out at 190 nM.

Turning to `COc1nc(/C=C/c2cccc(-c3ccccc3)c2C)ccc1CNC(CO)CO` [Compound 40], the IC50 worked out at 90 nM.

As for `Cc1c(/C=C/c2cc(CN[C@H](CO)C(=O)O)ccc2Cl)cccc1-c1ccccc1` [Compound 35, (R,E)-2-(4-Chloro-3-(2-(2-methylbiphenyl-3-yl)vinyl)benzylamino)-3-hydroxypropionic Acid], the IC50 amounted to 250 nM.

For the compound `COc1cc(/C=C/c2cccc(-c3ccc4c(c3)OCCO4)c2C)cc(OC)c1CN1CCC[C@H]1CO` [Compound 15], the IC50 amounted to 240 nM.

As for `COc1cc(/C=C/c2cccc(-c3ccccc3)c2C)cc(OC)c1CNc1ccc(O)c(C(=O)O)c1` [Compound 59, (E)-5-(2,6-Dimethoxy-4-(2-(2-methylbiphenyl-3-yl)vinyl)benzylamino)-2-hydroxybenzoic Acid], the IC50 was above 10000 nM.

Take `COc1nc(/C=C/c2cccc(-c3ccccc3)c2C)ccc1CNC1CCCCC1NC(C)=O` (stereo not shown) [Compound 42]: the IC50 was determined as 1100 nM.
